Columns and labels:
solubility in water = settings: same solubility expressed in moles
[1] = cited from earlier work

SMILES | solubility in water (molar) (solubility in water) | solubility in water [1]
CCBr [ethyl bromide] | 0.0835 moles per 1000 ml of water | 0.91 grams per 100 ml of water
CCCC(=O)OCC [ethyl butyrate] | 0.059 moles per 1000 ml of water | 0.68 grams per 100 ml of water
COC(=O)c1ccccc1 [methyl benzoate] | 0.001532 moles per 1000 ml of water | 0.157 grams per 100 ml of water
CBr [methyl bromide] | 0.0094 moles per 1000 ml of water | 0.09 grams per 100 ml of water

From patent publication US9102582B2, “Method of producing alcohols” (priority 2009, dated 2015)
